Reference: US9896421B2, “Compound having skin-whitening, anti-oxidizing and PPAR activities and medical use thereof” (Pusan National University Industry-University Cooperation …, priority 2011, dated 2018)
“Also recorded” adds a separate entry of the source.

Key:
PPAR alpha-LBD = target: T1, PPAR alpha-LBD (Homo sapiens, UniProt Q07869); type: binding; settings: sample final concentration 100 M (so in the source); compared with fenofibrate (positive control); FIG. 7
T1 construct: 10 μl of 4×PPAR alpha-LBD/Tb-anti-GST antibody
T1 sequence (Q07869 239-466 limits assumed): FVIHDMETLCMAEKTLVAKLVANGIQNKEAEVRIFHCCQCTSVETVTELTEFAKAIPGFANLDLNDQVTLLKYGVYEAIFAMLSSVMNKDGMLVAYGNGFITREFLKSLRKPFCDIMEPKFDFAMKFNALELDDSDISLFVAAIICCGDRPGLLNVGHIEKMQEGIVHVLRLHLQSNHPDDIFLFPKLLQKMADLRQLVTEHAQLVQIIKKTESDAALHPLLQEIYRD

PPAR gamma-LBD = target: T2, PPAR gamma-LBD (Homo sapiens, UniProt P37231); test: PPAR gamma assay (fluormone Pan-PPAR green competition, Tb-anti-GST antibody); type: binding; settings: sample final concentration 100 M (so in the source); compared with rosiglitazone (positive control); FIG. 8
T2 construct: 10 μl of 4×PPAR gamma-LBD/Tb-anti-GST antibody
T2 sequence (P37231 238-503 limits assumed): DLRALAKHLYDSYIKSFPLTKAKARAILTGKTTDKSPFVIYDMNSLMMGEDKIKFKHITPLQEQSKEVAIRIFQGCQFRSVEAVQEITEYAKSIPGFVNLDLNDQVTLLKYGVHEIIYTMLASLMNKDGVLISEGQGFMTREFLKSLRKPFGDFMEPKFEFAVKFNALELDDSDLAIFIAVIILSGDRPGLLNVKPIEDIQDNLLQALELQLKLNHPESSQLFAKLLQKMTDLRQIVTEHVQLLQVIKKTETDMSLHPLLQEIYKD
Description: 20 μl of a sample and 10 μl of 4× fluormone Pan-PPAR green were spread onto 384 well plates, and 10 μl of 4×PPAR alpha-LBD/Tb-anti-GST antibody or 10 μl of 4×PPAR gamma-LBD/Tb-anti-GST antibody were respectively used in PPAR alpha assay and PPAR gamma assay. In this regard, a sample compound was dissolved in such an amount of DMSO that made a final concentration of the sample to be 100 µM, and the DMSO final concentration was maintained within 1%. The reaction mixture was left at room temperature for 2 to 6 hours, and then, the absorption thereof was measured by using a microplate reader (Hewlett Packard) at an excitation wavelength of 340 nm and at an emission wavelength of 485 nm, and at an exitation wavelength of 340 nm and an emission wavelength of 520 nm to calculate a value of 520 nm/485 nm. In this regard, if a negative control was assumed to have an absorption value of 100, a competitive activation rate was defined as follows: 100 minus an absorption value of each sample. That is, the competitive activation rate indicates a binding ratio of the respective samples with respect to the negative control. […]

| Compound | PPARα activities (competitive activation rate) (PPAR alpha-LBD) | PPARγ activities (competitive activation rate) (PPAR gamma-LBD) |
| --- | --- | --- |
| CC1=N/C(=C\c2ccccc2O)C(=O)O1 [Compound 93, (Z)-4-(2-hydroxybenzylidene)-2-methyloxazol-5(4H)-one] | very excellent PPARα activation agent compared to fenofibrate; also recorded: simultaneously activates PPARα and PPARγ | simultaneously activates PPARα and PPARγ |
| CC(=O)Oc1ccc(/C=C2\N=C(C)OC2=O)c(O)c1 [Compound 85, (Z)-3-hydroxy-4-((2-methyl-5-oxooxazol-4(5H)-ylidene)methyl)phenyl acetate] | very excellent PPARα activation agent compared to fenofibrate; also recorded: simultaneously activates PPARα and PPARγ | simultaneously activates PPARα and PPARγ |
